From patent US20260250257A1, “ANTIBACTERIAL AND SYNERGISTIC ACTIVE COMPOUND AND USE THEREOF” (EAST CHINA UNIVERSITY OF SCIENCE AND TECHNOLOGY, priority 2023, published 2026)
≈ marks a conversion by molar mass, not a printed value.

How the values were obtained:
Assay type in all cases: cell-based
[1] = tested on: ATCC19606 strain (Acinetobacter baumannii); test: Broth microdilution, antibacterial activity of the compound used alone; conditions: for MIC: read-out: Antibacterial activity of the compound of Formula I, ATCC19606
Excerpt: (§1) The broth microdilution method was used to test the antibacterial effects of the compounds of the present invention against various Gram-negative bacterial strains when used alone.

[2] = tested on: ATCC25922 strain (Escherichia coli); test: as above; conditions: for MIC: read-out: Antibacterial activity of the compound of Formula I, ATCC25922
Excerpt: as §1

[3] = tested on: ATCC9027 strain (Pseudomonas aeruginosa); test: as above; conditions: for MIC: read-out: Antibacterial activity of the compound of Formula I, ATCC9027
Excerpt: as §1

[4] = tested on: ATCC13883 strain (Klebsiella pneumoniae); test: as above; conditions: for MIC: read-out: Antibacterial activity of the compound of Formula I, ATCC13883
Excerpt: as §1

[5] = tested on: ATCC19606 strain (Acinetobacter baumannii); test: Checkerboard antibacterial synergistic activity test with polymyxin E (FIC); design: key: FIC≤0.5 synergy; 0.5–1 additive; 1–2 indifferent; ≥2 antagonism; conditions: combined with polymyxin E
Procedure, shortened: (§2)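 First, two-fold series of polymyxin E (16–0.015 μg/ml) and compound (256–4 μg/ml) were made in MH broth. Next, combinations went into a 96-well grid, bacterial liquid was added, and plates sat at 37° C. for 16 h. Finally, FIC was computed and classed (≤0.5 synergistic).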

[6] = tested on: ATCC25922 strain (Escherichia coli); test: as above; design: key: FIC≤0.5 synergy; 0.5–1 additive; 1–2 indifferent; ≥2 antagonism; conditions: combined with polymyxin E
Procedure, shortened: as §2

[7] = tested on: ATCC9027 strain (Pseudomonas aeruginosa); test: as above; design: key: FIC≤0.5 synergy; 0.5–1 additive; 1–2 indifferent; ≥2 antagonism; conditions: combined with polymyxin E
Procedure, shortened: as §2

[8] = tested on: ATCC13883 strain (Klebsiella pneumoniae); test: as above; design: key: FIC≤0.5 synergy; 0.5–1 additive; 1–2 indifferent; ≥2 antagonism; conditions: combined with polymyxin E
Procedure, shortened: as §2

Row | MIC [1] [µg/mL] | MIC [2] [µg/mL] | MIC [3] [µg/mL] | MIC [4] [µg/mL] | Compound | Antibacterial activity of the compound of Formula I, ATCC19606 [1] [µg/mL] | Antibacterial activity of the compound of Formula I, ATCC25922 [2] [µg/mL] | Antibacterial activity of the compound of Formula I, ATCC9027 [3] [µg/mL] | Antibacterial activity of the compound of Formula I, ATCC13883 [4] [µg/mL] | Synergistic activity (FIC value) ATCC19606 [5] | Synergistic activity (FIC value) ATCC25922 [6] | Synergistic activity (FIC value) ATCC9027 [7] | Synergistic activity (FIC value) ATCC13883 [8]
1 | – | – | – | – | NC(N)=Nc1nc(-c2cc(C(F)(F)F)c(O)c(C(F)(F)F)c2)co1 [Compound I-45] | 256 | 256 | 256 | 256 | 0.13 | 0.52 | 1.25 | 0.19
2 | – | – | – | – | NC(N)=Nc1nc(-c2cccc(NC(=O)NC3CC3)c2)cs1 [Compound I-31] | 256 | 256 | 256 | 256 | 0.25 | 0.56 | 0.5 | 0.31
3 | – | – | – | – | Cc1oc(N=C2NCCCN2)nc1-c1cc(NS(C)(=O)=O)ccc1-c1ccco1 [Compound I-139] | 256 | 256 | 256 | 256 | 0.75 | 0.5 | 1.25 | 1.25
4 | – | – | – | – | Clc1ccc(Oc2cc(Cl)ccc2-c2c[nH]c(N=C3NCCCN3)n2)c(Cl)c1 [Compound I-150] | 256 | 256 | 256 | 256 | 0.31 | 0.14 | 0.06 | 0.09
5 | – | – | – | – | Clc1ccc(Oc2ccccc2)c(-c2coc(N=C3NCCCN3)n2)c1 [Compound I-134] | 256 | 256 | 256 | 256 | 1.25 | 1.25 | 0.52 | 0.53
6 | – | – | – | – | Fc1cc(Oc2ccc(Cl)cc2Cl)cc(-c2csc(N=C3NCCCN3)n2)c1 [Compound I-161] | 256 | 256 | 256 | 256 | 0.31 | 0.14 | 0.06 | 0.09
7 | – | – | – | – | CSc1cc2cccc(C)n2c1-c1nc(N=C(N)N)sc1Cl [Compound I-127] | 256 | 128 | 64 | 128 | 0.31 | 0.14 | 0.06 | 0.09
8 | – | – | – | – | NC(N)=Nc1nc(-c2cccc3ncsc23)co1 [Compound I-71] | 256 | 256 | 256 | 256 | 0.13 | 0.52 | 1.25 | 0.19
9 | – | – | – | – | N#Cc1cc(Oc2ccccc2I)cc(-c2coc(N=C3NCCCN3)n2)c1 [Compound I-157] | 256 | 256 | 256 | 256 | 0.31 | 0.14 | 0.06 | 0.09
10 | – | – | – | – | CSc1cc2ccc(C)cn2c1-c1nc(N=C(N)N)sc1C [Compound I-126] | 256 | 256 | 256 | 256 | 0.04 | 0.2 | 0.28 | 0.13
11 | – | – | – | – | NC(N)=Nc1nc(-c2ccc3c(c2)COc2c-3ccc3c2C(=O)CCC3)cs1 [Compound I-119] | 256 | 256 | 256 | 256 | 1.25 | 1.25 | 1.25 | 0.19
12 | – | – | – | – | CN(C)c1ccc(-c2nc(N=C(N)N)[nH]c2Cl)c(-c2ccco2)c1 [Compound I-78] | 256 | 256 | 128 | 256 | 0.75 | 0.5 | 0.63 | 0.38
13 | 256 (≈ 587 µM) | 256 (≈ 587 µM) | 256 (≈ 587 µM) | 256 (≈ 587 µM) | NC(N)=Nc1nc(-c2ccccc2Oc2ccccc2I)cs1 [Compound I-86] | – | – | – | – | 0.38 | 0.04 | 0.04 | 0.19
14 | 256 (≈ 822 µM) | 256 (≈ 822 µM) | 256 (≈ 822 µM) | 256 (≈ 822 µM) | NC(N)=Nc1nc(-c2cccc(Oc3ccccn3)c2)cs1 [Compound I-104] | – | – | – | – | 0.25 | 1.25 | 0.52 | 1.25
15 | – | – | – | – | CSc1cc2cc(Cl)cc(Cl)n2c1-c1nc(N=C(N)N)sc1Cl [Compound I-130] | 256 | 256 | 256 | 256 | 0.03 | 0.18 | 0.28 | 0.16
16 | – | – | – | – | NC(N)=Nc1nc(-c2cc(Cl)c(O)c(Cl)c2)co1 [Compound I-40] | 256 | 256 | 256 | 256 | 0.13 | 0.52 | 0.51 | 0.19
17 | – | – | – | – | Clc1sc(N=C2NCCCN2)nc1-c1ccccc1Oc1ccc(I)cc1I [Compound I-148] | 256 | 256 | 256 | 256 | 0.31 | 0.14 | 0.06 | 0.09
18 | 256 (≈ 954 µM) | 256 (≈ 954 µM) | 256 (≈ 954 µM) | 256 (≈ 954 µM) | NC(N)=Nc1nc(-c2ccc3ccccc3c2)cs1 [Compound I-56] | – | – | – | – | 1.25 | 0.5 | 1.25 | 1.25
19 | – | – | – | – | NC(N)=Nc1nc(-c2ccccc2C(F)(F)F)c[se]1 [Compound I-41] | 256 | 256 | 256 | 256 | 0.5 | 0.38 | 0.63 | 0.38
